The source of these data is article PMC6709486, “Safety, Tolerability, Pharmacokinetics, and Drug Interaction Potential of SPR741, an Intravenous Potentiator, after Single and Multiple Ascending Doses and When Combined with β-Lactam Antibiotics in Healthy Subjects” (Antimicrobial Agents and Chemotherapy, 2019).

The data set in a line: clinical. The conditions noted are these: human, in vivo, iv, 400 mg; for AUC(0-inf): AUC0-inf. An excerpt: The drug-drug interaction study was a phase 1, single-center, multiarm, open-label, randomized, three-period crossover study. The objective was to evaluate the DDI potential and the PK of SPR741 coadministered with each of three partner antibiotics as well as the DDI and PK effects of three partner antibiotics administered alone and with SPR741. The study comprised a screening phase (day −28 to day −2), three treatment arms (day 1 to day 8 for each arm), and an end-of-study follow-up (day 9). Each subject participated in screening, one treatment arm, and the end-of-study follow-up. The maximum duration of participation for each subject was approximately 37 days. Subjects remained in the clinical unit from the day before dosing (day −1) to 24 h after the third and last dose period (day 8).
The DDI study consisted of three treatment arms with three dosing periods in each arm (days 1, 4, and 7). In random sequence, subjects received a single dose of study treatments with a 2-day washout period between each assigned treatment. In treatment arm 1, subjects received 400 mg of SPR741 i.v. over 1 h, 400 mg of SPR741 i.v. over 1 h plus 1.0 g of ceftazidime i.v. over 1 h, and 1.0 g of ceftazidime i.v. over 1 h. In treatment arm 2, subjects received 400 mg of SPR741 i.v. over 1 h, 400 mg of SPR741 i.v. over 1 h plus 4.5 g of piperacillin-tazobactam i.v. over 1 h, and 4.5 g of piperacillin-tazobactam i.v. over 1 h.
For both studies, maximum plasma concentration (Cmax), area under the concentration-time curve from time zero to the last measurable time point (AUC0-t), area under the concentration-time curve from time zero to infinity (AUC0-inf), time to maximum concentration (Tmax), terminal elimination rate constant (kel), terminal half-life (t1/2), terminal clearance (CL), and volume of distribution (V) were determined. PK parameters were determined using WinNonlin Phoenix, version 6.4.
For the SAD phase, blood samples were obtained predose (within 10 min), at 30 min following the start of infusion, at the end of infusion, and at 75, 90, 105, 120, and 150 min and 3, 4, 5, 6, 8, 10, 12, and 24 h following the start of infusion. For the MAD phase, blood was obtained predose (within 10 min), at 30 min following the start of infusion, at the end of infusion, and at 90 and 150 min and 3, 4, 5, 6, and 8 h following the start of infusion (day 1, first dose; day 14, last dose). Five additional blood samples were obtained at 10, 12, 24, 36, and 48 h following the start of infusion of the last dose (morning of day 14). For the DDI study, blood samples for determining plasma concentrations of SPR741 and each partner antibiotic were obtained predose (within −10 min), at 30 min, and at 1 h, 1 h 15 min, 1 h 30 min, 1 h 45 min, 2, 4, 8, 12, and 24 h postdose for each dose period. Plasma samples for drug concentration measurements were analyzed using a validated high-pressure liquid chromatography tandem mass spectrometry (HPLC-MS/MS) method. In brief, samples were spiked with a stable isotope-labeled internal standard and then extracted by protein precipitation before injection onto the HPLC-MS/MS system. Unique transitions were monitored for all test articles and internal standards. Plasma concentrations below the limit of quantitation were reported as 0.
In the SAD/MAD study, geometric means were calculated for AUC and Cmax values. Analyses using linear models were performed to assess dose proportionality (both single dose and multiple dose), time dependence, accumulation, and attainment of steady state (multiple dose). Dose proportionality was assessed using linear models for the SAD and MAD cohorts separately. […] Point estimates and 90% confidence intervals (CIs), using the residual mean square error obtained from the ANOVA, were constructed for the comparisons between treatments. The point and CI estimates were back-transformed to give estimates of the ratios (percentages) of the geometric LSMs and corresponding 90% CIs.

The mark [1] stands for this setting: geometric LSM, reference treatment.

Peptide text beside a SMILES is read from it.

Consider `CC(=O)N[C@H](C(=O)N[C@H](CO)C(=O)N[C@H]1CCNC(=O)[C@H]([C@@H](C)O)NC(=O)[C@H](CCN)NC(=O)[C@H](CCN)NC(=O)[C@H](CC(C)C)NC(=O)[C@@H](Cc2ccccc2)NC(=O)[C@H](CCN)NC1=O)[C@@H](C)O` [SPR741] (HELM PEPTIDE1{[ac].T.[dS].[Dab].[Dab].[dF].L.[Dab].[Dab].T}$PEPTIDE1,PEPTIDE1,4:R3-10:R2$$$V2.0), for which the “AUC0-inf, geometric LSM, reference treatment” value is reported as 96,800 h·ng/ml; the time to peak (Tmax) (commonly the time at which the peak concentration occurs) came out at 1 h; the AUC(0-inf) – broadly, the area under the concentration-time curve extrapolated to infinity – turned out to be 90300 ng·h/mL; the Cmax (usually the peak of the concentration-time curve) stood at 28100 ng/mL. Under setting [1], this molecule displayed an AUC(0-inf) of 79300 ng·h/mL and a Cmax of 28800 ng/mL. This molecule gave an AUC0-t (AUC0-t) of 89700 ng·h/mL. In addition, under “AUC0-τ, geometric LSM, reference treatment”, the AUC (commonly concentration integrated over time) is 78700 ng·h/mL. In addition, the clearance (commonly the rate of elimination divided by the concentration) (CL) is 75 mL/min. Further, the Vd (commonly the apparent volume that relates the amount in the body to the concentration in plasma or blood) (V) amounted to 20.6 L. Further, where the note is “t1/2”, the half-life – broadly, how long it takes for the measured level to halve – is 3.2 h.
